Measurements as given in ChEMBL document CHEMBL1201862, “PubChem BioAssay data set” (2004).
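How tested: cells in 96-well plates exposed to compound for 48 hours at five concentrations. Abbreviation: GI50, concentration required for 50% inhibition of growth.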 The source made the active and inactive calls. Rule as the data show it: active = GI50 up to about 1.1 µM and inactive = higher.

Key:
Experiment in all cases: NCI-60 cell line screen, 48 h
UACC-257 = system: UACC-257
OVCAR-8 = system: OVCAR-8
SK-MEL-28 = system: SK-MEL-28
HCC 2998 = system: HCC 2998
M14 = system: M14
786-0 = system: 786-0
OVCAR-5 = system: OVCAR-5
NCI-H460 = system: NCI-H460
HCT-15 = system: HCT-15
MDA-MB-435 = system: MDA-MB-435
KM12 = system: KM12
SNB-75 = system: SNB-75
HL-60 = system: HL-60
SN12C = system: SN12C
HCT-116 = system: HCT-116
NCI-H522 = system: NCI-H522
SK-OV-3 = system: SK-OV-3
MDA-N = system: MDA-N
UACC-62 = system: UACC-62
CAKI-1 = system: CAKI-1

Compound | GI50 (UACC-257) | GI50 (OVCAR-8) | GI50 (SK-MEL-28) | GI50 (HCC 2998) | GI50 (M14) | GI50 (786-0) | GI50 (OVCAR-5) | GI50 (NCI-H460) | GI50 (HCT-15) [µM] | GI50 (MDA-MB-435) | GI50 (KM12) | GI50 (SNB-75) | GI50 (HL-60) | GI50 (SN12C) | GI50 (HCT-116) | GI50 (NCI-H522) | GI50 (SK-OV-3) | GI50 (MDA-N) | GI50 (UACC-62) | GI50 (CAKI-1)
CSc1ccc(/C=C/c2ccnc3ccccc23)cc1 | 18.4 µM (inactive) | 15.5 µM (inactive) | 17.4 µM (inactive) | 13.9 µM (inactive) | 9.04 µM (inactive) | 14.8 µM (inactive) | 17.7 µM (inactive) | 12.2 µM (inactive) | 11.5 | 3.69 µM (inactive) | 20.3 µM (inactive) | 20.4 µM (inactive) | 3.97 µM (inactive) | 15.5 µM (inactive) | 10.5 µM (inactive) | 12.5 µM (inactive) | 16 µM (inactive) | 13.7 µM (inactive) |  | 
O=C(O)CCc1ccc2c(c1)C(=O)CC2 | > 100 µM (inactive) | > 100 µM (inactive) | > 100 µM (inactive) | > 100 µM (inactive) | > 100 µM (inactive) | > 100 µM (inactive) | > 100 µM (inactive) | > 100 µM (inactive) | > 100 | > 100 µM (inactive) | > 100 µM (inactive) |  | > 100 µM (inactive) | > 100 µM (inactive) | > 100 µM (inactive) | > 100 µM (inactive) | > 100 µM (inactive) | > 100 µM (inactive) | > 100 µM (inactive) | 
O=S(=O)(c1ccccc1)c1cccc2c1NCCC2 | 23.6 µM (inactive) | 58.6 µM (inactive) | 36.7 µM (inactive) | 13.5 µM (inactive) | 75.5 µM (inactive) | 78.7 µM (inactive) | > 100 µM (inactive) | 43.4 µM (inactive) | 32.4 | 35.2 µM (inactive) | 44.2 µM (inactive) | 26.1 µM (inactive) | 21.8 µM (inactive) | 42.7 µM (inactive) | 42.5 µM (inactive) |  | > 10 µM (inactive) | 47.2 µM (inactive) | > 10 µM (inactive) | 27.9 µM (inactive)
O=c1cc(-c2ccccc2)oc2c(-c3cc(Cl)cc4c(=O)cc(-c5ccccc5)oc34)cc(Cl)cc12 |  | 28.9 µM (inactive) | 35 µM (inactive) | 47.9 µM (inactive) | 27.7 µM (inactive) | 27.4 µM (inactive) | 37.9 µM (inactive) | 22.6 µM (inactive) | 29.5 | 26.5 µM (inactive) | 20 µM (inactive) | 4.49 µM (inactive) | 50.1 µM (inactive) | 32.8 µM (inactive) |  | 14.1 µM (inactive) | 16.7 µM (inactive) | 17.3 µM (inactive) | 11.6 µM (inactive) | 
Cc1ccc(-c2c(C#N)c(N)[nH]c(=S)c2C#N)cc1 | 34.5 µM (inactive) | 46.3 µM (inactive) | 26.2 µM (inactive) | 26.7 µM (inactive) | 43.6 µM (inactive) | 26.1 µM (inactive) | > 100 µM (inactive) | 47.6 µM (inactive) | 38.7 | 23.3 µM (inactive) | 40.8 µM (inactive) |  | 17.3 µM (inactive) | 22.3 µM (inactive) | 32.4 µM (inactive) | 19.4 µM (inactive) |  | 18.5 µM (inactive) | 35.4 µM (inactive) | 49.8 µM (inactive)
CC1=NN(C(=O)CC(=O)Nc2ccccc2Cl)C(=O)C1/N=N/c1ccc(C(=O)O)cc1 (stereo not drawn) | > 100 µM (inactive) | > 100 µM (inactive) | > 100 µM (inactive) | > 100 µM (inactive) | > 100 µM (inactive) | > 100 µM (inactive) | > 100 µM (inactive) | > 100 µM (inactive) | > 100 | > 100 µM (inactive) | > 100 µM (inactive) |  | > 100 µM (inactive) | > 100 µM (inactive) | > 100 µM (inactive) | > 100 µM (inactive) |  | > 100 µM (inactive) | > 100 µM (inactive) | > 100 µM (inactive)
